Columns and labels:
bedstraw = test: Test B pre/postemergence bedstraw; type: in vivo, Galium aparine; conditions: Preemergence
In short: (§1)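 Herbicidal effect was estimated by eye on a ten-point control scale after plants spent twelve to sixteen days in a greenhouse following soil or foliar treatment. Foliar sprays targeted plants at one to four leaves; all doses were formulated in a non-phytotoxic solvent with surfactant.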

blackgrass = test: Test B pre/postemergence blackgrass; type: in vivo, Alopecurus myosuroides
In short: as §1

surinam grass = test: Test B pre/postemergence surinam grass; type: in vivo, Brachiaria decumbens
In short: as §1

cocklebur = test: Test B pre/postemergence cocklebur; type: in vivo, Xanthium strumarium
In short: as §1

corn = test: Test B pre/postemergence corn; type: in vivo, Zea mays
In short: as §1

giant foxtail = test: Test B pre/postemergence giant foxtail; type: in vivo, Setaria faberii
In short: as §1

morningglory = test: Test B pre/postemergence morningglory; type: in vivo, Ipomoea hederacea
In short: as §1

pigweed = test: Test B pre/postemergence pigweed; type: in vivo, Amaranthus retroflexus
In short: as §1

rape = test: Test B pre/postemergence rape; type: in vivo, Brassica napus
In short: as §1

soybean = test: Test B pre/postemergence soybean; type: in vivo, Glycine max
In short: as §1

sugar beet = test: Test B pre/postemergence sugar beet; type: in vivo, Beta vulgaris
In short: as §1

velvetleaf = test: Test B pre/postemergence velvetleaf; type: in vivo, Abutilon theophrasti
In short: as §1

purple nutsedge = test: Test B pre/postemergence purple nutsedge; type: in vivo, Cyperus rotundus
In short: as §1

smallflower flatsedge = test: Test B flood test smallflower flatsedge; type: in vivo, Cyperus difformis
In short: (§2)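 Each value is a visual injury score relative to controls, with 10 meaning complete control and 0 no effect. Evaluation took place twelve to sixteen days after the 2-leaf-stage plants were treated and kept in the greenhouse.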

duck salad = test: Test B flood test duck salad; type: in vivo, Heteranthera limosa
In short: as §2

bamyardgrass = test: Test B flood test barnyardgrass; type: in vivo, Echinochloa crus-galli
In short: as §2

[1] = Postemergence, Rate 62 g/ha, scale 0 to 10, 0 is no effect, 10 is complete control
[2] = Postemergence, Rate 125 g/ha, scale of 0 to 10 where 0 is no effect and 10 is complete control
[3] = Postemergence, Rate 250 g/ha, scale of 0 to 10, 0 is no effect, 10 is complete control
[4] = Preemergence, Rate 62 g/ha, scale of 0 to 10 where 0 is no effect and 10 is complete control
[5] = Preemergence, Rate 125 g/ha, scale of 0 to 10 where 0 is no effect and 10 is complete control
[6] = Preemergence, Rate 250 g/ha, scale 0 to 10 (0 no effect, 10 complete control)
[7] = Preemergence, Rate 500 g/ha, scale of 0 to 10 where 0 is no effect and 10 is complete control
[8] = Rate 500 g/ha, Postemergence, scale 0 to 10, 0 is no effect, 10 is complete control
[9] = Rate 62 g/ha, flood test species, Pre-emergence, visual evaluation after twelve to sixteen days
[10] = Rate 125 g/ha, under heading Pre-emergence, flood test species, visual evaluation after twelve to sixteen days
[11] = Rate 250 g/ha, Pre-emergence (flood test species), scale 0 to 10, 0 is no effect, 10 is complete control
[12] = Rate 500 g/ha, Pre-emergence section of Table B, 0 to 10 scale (0 no effect, 10 complete control)

With C=C(Cc1ccccc1)Cn1c(=O)on(C(=O)N(c2ccccc2)C(C)C)c1=O [Compound 650] the “Bedstraw plant response rating” value (bedstraw; Rate 62 g/ha, scale of 0 to 10 where 0 is no effect and 10 is complete control) was 0, the “Bedstraw plant response rating” value (bedstraw; Rate 125 g/ha, scale of 0 to 10 where 0 is no effect and 10 is complete control) was 0 and the “Plant response rating, Bedstraw” value (bedstraw; Rate 250 g/ha, scale 0 to 10 (0 no effect, 10 complete control)) was 0. The “Plant response rating, Bedstraw” value (bedstraw; Rate 500 g/ha, scale of 0 to 10 where 0 is no effect and 10 is complete control) was 5, the “Plant response rating, Blackgrass” value (blackgrass; [1]) was 0 and the “Blackgrass plant response rating” value (blackgrass; [2]) was 0. For the same compound, the “Blackgrass plant response rating” value (blackgrass; [3]) was 0, the “Blackgrass plant response rating” value (blackgrass; [4]) was 0 and the “Blackgrass plant response rating” value (blackgrass; [5]) was 0. For the same compound, the “Plant response rating, Blackgrass” value (blackgrass; [6]) was 0, the “Plant response rating, Blackgrass” value (blackgrass; [7]) was 3 and the “Blackgrass plant response rating” value (blackgrass; [8]) was 3. For the same compound, the “Plant response rating, B. signalgrass” value (surinam grass; [1]) was 0, the “Plant response rating, B. signalgrass” value (surinam grass; [2]) was 0 and the “B. signalgrass plant response rating” value (surinam grass; [3]) was 0. The “B. signalgrass plant response rating” value (surinam grass; [4]) was 0, the “B. signalgrass plant response rating” value (surinam grass; [5]) was 0 and the “Plant response rating, B. signalgrass” value (surinam grass; [6]) was 0. For the same compound, the “Plant response rating, B. signalgrass” value (surinam grass; [7]) was 4, the “B. signalgrass plant response rating” value (surinam grass; [8]) was 2 and the “Plant response rating, Cocklebur” value (cocklebur; [1]) was 0. For the same compound, the “Cocklebur plant response rating” value (cocklebur; [2]) was 0, the “Cocklebur plant response rating” value (cocklebur; [3]) was 0 and the “Cocklebur plant response rating” value (cocklebur; [4]) was 0. For the same compound, the “Cocklebur plant response rating” value (cocklebur; [5]) was 0, the “Plant response rating, Cocklebur” value (cocklebur; [6]) was 0 and the “Plant response rating, Cocklebur” value (cocklebur; [7]) was 0. The “Cocklebur plant response rating” value (cocklebur; [8]) was 0, the “Plant response rating, Corn” value (corn; [1]) was 0 and the “Corn plant response rating” value (corn; [2]) was 0. For the same compound, the “Corn plant response rating” value (corn; [3]) was 2, the “Corn plant response rating” value (corn; [4]) was 0 and the “Corn plant response rating” value (corn; [5]) was 0. For the same compound, the “Plant response rating, Corn” value (corn; [6]) was 0, the “Plant response rating, Corn” value (corn; [7]) was 0 and the “Corn plant response rating” value (corn; [8]) was 4. For the same compound, the “Plant response rating, Giant foxtail” value (giant foxtail; [1]) was 0, the “Giant foxtail plant response rating” value (giant foxtail; [2]) was 2 and the “Giant foxtail plant response rating” value (giant foxtail; [3]) was 8. The “Giant foxtail plant response rating” value (giant foxtail; [4]) was 7, the “Giant foxtail plant response rating” value (giant foxtail; [5]) was 10 and the “Plant response rating, Giant foxtail” value (giant foxtail; [6]) was 10. For the same compound, the “Plant response rating, Giant foxtail” value (giant foxtail; [7]) was 10, the “Giant foxtail plant response rating” value (giant foxtail; [8]) was 8 and the “Plant response rating, Morningglory” value (morningglory; [1]) was 4. For the same compound, the “Morningglory plant response rating” value (morningglory; [2]) was 10, the “Morningglory plant response rating” value (morningglory; [3]) was 10 and the “Morningglory plant response rating” value (morningglory; [4]) was 0. For the same compound, the “Morningglory plant response rating” value (morningglory; [5]) was 0, the “Plant response rating, Morningglory” value (morningglory; [6]) was 1 and the “Plant response rating, Morningglory” value (morningglory; [7]) was 1. The “Morningglory plant response rating” value (morningglory; [8]) was 10, the “Plant response rating, Redroot pigweed” value (pigweed; [1]) was 2 and the “Redroot pigweed plant response rating” value (pigweed; [2]) was 6. For the same compound, the “Redroot pigweed plant response rating” value (pigweed; [4]) was 1, the “Redroot pigweed plant response rating” value (pigweed; [5]) was 7 and the “Plant response rating, Redroot pigweed” value (pigweed; [6]) was 7. The “Plant response rating, Redroot pigweed” value (pigweed; [7]) was 9, the “Redroot pigweed plant response rating” value (pigweed; [8]) was 6 and the “Plant response rating, Rape” value (rape; [1]) was 0. The “Rape plant response rating” value (rape; [2]) was 0, the “Rape plant response rating” value (rape; [4]) was 0 and the “Rape plant response rating” value (rape; [5]) was 0. The “Plant response rating, Rape” value (rape; [6]) was 0, the “Plant response rating, Rape” value (rape; [7]) was 2 and the “Rape plant response rating” value (rape; [8]) was 3. The “Plant response rating, Soybean” value (soybean; [1]) was 2, the “Soybean plant response rating” value (soybean; [2]) was 4 and the “Soybean plant response rating” value (soybean; [4]) was 0. For the same compound, the “Soybean plant response rating” value (soybean; [5]) was 0, the “Plant response rating, Soybean” value (soybean; [6]) was 0 and the “Plant response rating, Soybean” value (soybean; [7]) was 0. The “Soybean plant response rating” value (soybean; [8]) was 5, the “Plant response rating, Sugarbeets” value (sugar beet; [1]) was 0 and the “Sugarbeets plant response rating” value (sugar beet; [2]) was 0. The “Sugarbeets plant response rating” value (sugar beet; [4]) was 0, the “Sugarbeets plant response rating” value (sugar beet; [5]) was 0 and the “Plant response rating, Sugarbeets” value (sugar beet; [6]) was 0. The “Plant response rating, Sugarbeets” value (sugar beet; [7]) was 4, the “Sugarbeets plant response rating” value (sugar beet; [8]) was 0 and the “Plant response rating, Velvetleaf” value (velvetleaf; [1]) was 0. For the same compound, the “Velvetleaf plant response rating” value (velvetleaf; [2]) was 0, the “Velvetleaf plant response rating” value (velvetleaf; [4]) was 0 and the “Velvetleaf plant response rating” value (velvetleaf; [5]) was 0. For the same compound, the “Plant response rating, Velvetleaf” value (velvetleaf; [6]) was 0, the “Plant response rating, Velvetleaf” value (velvetleaf; [7]) was 0 and the “Velvetleaf plant response rating” value (velvetleaf; [8]) was 2. The “Plant response rating, Nutsedge” value (purple nutsedge; [1]) was 2, the “Nutsedge plant response rating” value (purple nutsedge; [2]) was 2 and the “Nutsedge plant response rating” value (purple nutsedge; [5]) was 3. The “Plant response rating, Nutsedge” value (purple nutsedge; [6]) was 7, the “Plant response rating, Nutsedge” value (purple nutsedge; [7]) was 5 and the “Nutsedge plant response rating” value (purple nutsedge; [8]) was 4. For the same compound, the “Plant response rating, S. Flatsedge (0 to 10 scale, 0 is no effect, 10 is complete control)” value (smallflower flatsedge; [9]) was 0, the “S. Flatsedge plant response rating (0 to 10 scale, 0 is no effect, 10 is complete control)” value (smallflower flatsedge; [10]) was 0 and the “S. Flatsedge plant response rating” value (smallflower flatsedge; [11]) was 0. The “S. Flatsedge plant response rating” value (smallflower flatsedge; [12]) was 0, the “Plant response rating, Ducksalad (0 to 10 scale, 0 is no effect, 10 is complete control)” value (duck salad; [9]) was 0 and the “Ducksalad plant response rating (0 to 10 scale, 0 is no effect, 10 is complete control)” value (duck salad; [10]) was 0. For the same compound, the “Ducksalad plant response rating” value (duck salad; [11]) was 0, the “Ducksalad plant response rating” value (duck salad; [12]) was 0 and the “Plant response rating, Barnyardgrass (0 to 10 scale, 0 is no effect, 10 is complete control)” value (bamyardgrass; [9]) was 0. The “Barnyardgrass plant response rating (0 to 10 scale, 0 is no effect, 10 is complete control)” value (bamyardgrass; [10]) was 0, the “Barnyardgrass plant response rating” value (bamyardgrass; [11]) was 0 and the “Barnyardgrass plant response rating” value (bamyardgrass; [12]) was 0.

Source: patent US6737383B1, “Herbicidal oxadiazolidines” (priority 1999, dated 2004)
